Data reported in US20160187321A1, “INDUCED EXPRESSION OF PROTEINS IN INSECT CELLS” (UNIVERSITY OF FLORIDA RESEARCH FOUNDATION, INC., priority 2013, published 2016).
pEC50, pIC50: −log10 of the molar value. “Also recorded” adds a separate entry of the source. Like-named read-outs stand apart in the source and are kept apart here.

Columns and labels:
[1] = tested on: potassium channels; assay: Thallium flux (FluxOR) fluorescence assay of potassium channel function in Sua1B cells; assay type: cell-based, Anopheles gambiae
Description: (§1) Differentiation with 20-Hydroxyecdysone. […] Controls had 0.1% DMSO.
Thallium Flux Measurements of Potassium Channel Pharmacology. The FluxOR™ potassium channel assay (Molecular Probes, Inc., Eugene, Oreg., USA) was performed as outlined in the product information sheet and performed on the SyntaxMax plate reader (BioTek, Winooski, Vt., USA).

[2] = tested on: nicotinic acetylcholine receptors; assay: Imidacloprid-induced calcium fluorescence in Sf21 cells; assay type: cell-based, lepidopteran
Description: (§2) FIGS. 8A-8C. […] Imidacloprid-induced calcium fluorescence is blocked by 100 μM mecamylamine (MML). […] FIG. 8B: Response of a patch clamped Sf21 cell to imidacloprid treatment after 6 hours in 20-HE. […] The current voltage plot was generated by subtracting TEA-insensitive current from total current at each voltage.
FIG. 9. […] Expression of IMI-induced fluorescence is the same, with even lower vehicle background with caffeine, at least in this particular experiment.

[3] = tested on: muscarinic-type receptor; assay: Calcium fluorescence response to muscarinic agonists in Sua1B cells; assay type: cell-based, Anopheles gambiae
Text: (§3) Cell Culture. […] Cells were passed every 3-5 days.
(§4) Differentiation with 20-Hydroxyecdysone.

[4] = tested on: Kv2 delayed-rectifier K+ channel (AgKv2), native channel current in Sua1B cells; details: read-out: IC50 (TEA inhibition of K+ current), FIG. 5F, whole cell patch clamp, holding potential −80 mV, steps up to +100 mV, TEA 0.3-30 mM traces, 20-HE added 3 hours before experiments (general method)
Text: as §3, §4

[5] = tested on: Kv2 delayed-rectifier potassium channels (AgKv2); assay: Whole cell patch clamp of potassium channel currents in Sua1B cells; assay type: cell-based, Anopheles gambiae
Text: as §3, §1

[6] = tested on: AgKv2 K+ channels; assay: Whole cell patch clamp of AgKv2 K+ channels expressed in HEK293 cells; assay type: cell-based, Anopheles gambiae
[7] = tested on: Anopheles gambiae Kv2 (AgKv2) channel (Accession # XM_315955.4) expressed in HEK293 cells; details: read-out: EC50 (TEA inhibition of K+ current); FIG. 6E; HEK293 cells with AgKv2 gene, CMV promoter, tetracycline-induced (w/ TC); whole cell patch clamp, holding potential −80 mV, steps up to +100 mV
[8] = tested on: nicotinic acetylcholine receptors; assay: Imidacloprid-induced calcium fluorescence in Sua1B cells; assay type: cell-based, Anopheles gambiae
[9] = tested on: nicotinic acetylcholine receptors; assay: Patch clamp of Sf21 cell response to imidacloprid; assay type: cell-based, lepidopteran; details: Sf21 cell after 6 hours in 20-HE
Description: as §2

[10] = tested on: outward potassium currents similar to Kv2 currents; assay: Patch clamp of potassium currents in Sf21 cells; assay type: cell-based, lepidopteran; details: 3 hours treatment
Description: as §2

NC1=N[C@H](O)[C@H]2[C@H]3O[C@]4(O)O[C@@H]([C@@H](O)[C@@]2(N1)[C@@H]4O)[C@]3(O)CO [tetrodotoxin]
effect on thallium ion uptake [1]: no effect

Cn1c(=O)c2c(ncn2C)n(C)c1=O [caffeine]
expression of imidacloprid sensitivity (IMI-induced fluorescence) ([2]; Sf21 cells, 6 hours exposure, 10 μM imidacloprid): approximately the same effect as caffeine and 20-HE

CC(C[N+](C)(C)C)OC(N)=O (centres unmarked) [bethanechol]
fold less potent response in the absence of insect hormone [3]: ~200 fold
pEC50 ([3]; read-out: EC50 (concentration where the response is half maximal), calcium fluorescence): 6.60
pEC50 ([3]; read-out: EC50, calcium fluorescence): 4.32

CC[N+](CC)(CC)CC [TEA, tetraethylammonium]
pIC50 [4]: 2.10
inhibition of Kv2 (AgKv2) K+ currents [5]: inhibited AgKv2 currents; also recorded: Inhibition of K^+ current
inhibition of AgKv2 K+ current [6]: inhibited; also recorded: Inhibition of potassium current
pEC50 [7]: 2.89

O=[N+]([O-])NC1=NCCN1Cc1ccc(Cl)nc1 [imidacloprid]
calcium fluorescence versus controls ([8]; Sua1B cells in the absence of 20-HE): no imidacloprid effect
calcium fluorescence versus controls ([8]; Sua1B cells, 3 hours of 20-HE treatment): increases calcium fluorescence above controls
calcium fluorescence compared to matched controls ([2]; 10 μM, Sf21 cells, 6 hours of exposure to 20-HE): greater imidacloprid-induced calcium fluorescence
calcium fluorescence ([2]; Sf21 cells without 20-HE): reduced effect
current response of patch clamped cell [9]: inward current

Nc1ccncc1 [4-AP, 4-aminopyridine]
effect on thallium ion uptake ([1]; Sua1B cells induced by 20-HE): blocking action
inhibition of Kv2 (AgKv2) K+ currents ([5]; 20-HE-treated Sua1B cells): inhibited AgKv2 currents
inhibition of Kv2 (AgKv2) K+ currents ([5]; 20-HE-treated Sua1B cells, listed as 4-aminopyridine): inhibited
inhibition of AgKv2 K+ current ([6]; HEK293 cells expressing the AgKv2 gene): inhibited

CC(C)(O)CC[C@@H](O)[C@](C)(O)[C@H]1CC[C@@]2(O)C3=CC(=O)[C@@H]4C[C@@H](O)[C@@H](O)C[C@]4(C)[C@H]3CC[C@]12C [20-HE, 20-hydroxyecdysone]
expression of nicotinic acetylcholine receptors ([2]; Sf21 cells, 6 hours of exposure): enhances expression
K+ channel expression (thallium fluorescence) ([1]; Sua1B cells, 42 μM 20-HE, time dependence): detectable ion channel expression in hours
Maximal increase of AgKv2 channel expression (current) ([5]; 20-HE treatment of Sua1B cells): 2000 pA
time after treatment at which Kv2 delayed-rectifier potassium channels are expressed ([5]; Sua1B cells, whole cell patch clamp): ≤ 3 h
expression of potassium currents [10]: expressing outward potassium currents

CNC1(C)C2CCC(C2)C1(C)C (centres unmarked) [mecamylamine]
block of imidacloprid-increased calcium fluorescence ([8]; 100 μM, Sua1B cells, 3 hours of 20-HE treatment): blocked
block of imidacloprid-induced calcium fluorescence ([2]; 100 μM, Sf21 cells, 6 hours 20-HE): blocked
reduction of imidacloprid-induced calcium fluorescence ([2]; Sf21 cells without 20-HE): variable and not statistically significant reduction
